Experimental findings from patent US20130210907A1, “METHOD FOR PREVENTING OR TREATING ENTEROCHROMAFFIN CELL HYPERPLASIA-RELATED DISEASES BY QUERCETIN ADMINISTRATION” (HONG KONG BAPTIST UNIVERSITY, priority 2012, published 2013) are described below.

Holding throughout (format): in vivo, rat
In experiment [1] the test system is PI-IBS rats. The experiment in a line: Colonic EC cell counting (silver staining). The settings on record: for EC cell density: PI-IBS rats, colon. Here is the method:
Six groups of 5 rats are tested. The groups setting and treatments are as described in Example 1. Different from Example 1, AWR test are not applied to the rats in this experiment in order to obtain the basal data without CRD stimulus. After the last drug administration, a 6 cm proximal colon (1-2 cm from caecum) is collected and divided into 3 parts, the proximal is fixed in 4% paraformaldehyde and embedded in paraffin for EC cell staining; the middle part is collected for 5-HT content measurement and electron microscopic evaluation, and the distal part is for western blotting analysis.
Tissue sections (5-μm thick) are deparaffinized and rehydrated for silver staining. Briefly, sections are incubated with 5% ammoniacal silver solution for 4 h at room temperature, then 2 h in 56° C. and subsequently 12 h at room temperature in a dark humidified chamber. After rinsing with water, 5% sodium hyposulfite is added and the tissue sections are incubated for 5 min at room temperature. The brown to black silver precipitate in the cytoplasm of EC cells represents as a positive reaction. A researcher blinded to treatment counted 5 random fields at 200× magnifications for each section, and the number of EC cells per mm^2 of mucosa is quantified using Image J NIH software.

For experiment [2], the system named is TPH. Description: Colonic TPH expression by Western blot. Here is the method: The colon tissues are homogenized and sonicated on ice for protein extraction. After determination of protein content, the samples protein are denatured at 100° C. for 5 min. Proteins are separated by 10% SDS-PAGE and transferred to PVDF membranes (Bio-Rad, CA). After blocking with 5% nonfat milk, the membranes are incubated overnight at 4° C. with rabbit anti-TPH antibody (1:1000, Santa Cruz, Calif.), then incubated with the appropriate secondary antibodies for 1 h at room temperature. The immunoreaction is detected using ECL Western blotting kit (ECL, Amersham, UK). Bands are visualized on Biomax X-ray film, and optical density of each band is semi-quantified by computer software (Image J.NIH). All detected protein bands are normalized to β-actin levels.

Experiment [3] deals with PI-IBS rats. Description: Electron microscopy of EC cell secretory granules after CRD. The settings on record: median dose. Here is the method: For electron microscopy evaluation, the colon tissues are collected from the rats treated with AWR test so as to investigate the feature of mechanical stimulus-induced 5-HT release. Colon segment is fixed for 24 h at 4° C. in fixative containing 4% paraformaldehyde and 0.2% picric acid in 0.1M PB, then washed and embedded in gelatin. Thin sections are cut and picked up on 200-mesh grids. The sections are stained with uranyl acetate and lead citrate. Examination and photography of sections are carried out using Philips CM 10 transmission electron microscope (Philips Scientifics, Netherlands). At the ultra-structural level, EC cell are distinguished from other enteroendocrine cells by the pleomorphic nature of their secretory granules. The EC cells in which there are many clear secretory granules without cores and granules with eccentric cores are considered as the activated one with excessive 5-HT release.

For `O=c1c(O)c(-c2ccc(O)c(O)c2)oc2cc(O)cc(O)c12` [Quercetin, 2-(3,4-dihydroxyphenyl)-3,5,7-trihydroxy-4H-chromen-4-one], the figures for the EC cell density in experiment [1] (5 mg/kg i.g.), in experiment [1] (10 mg/kg i.g.) and in experiment [1] (20 mg/kg i.g.) were 89 ± 5 Number/mm^2, 72 ± 7 Number/mm^2 and 105 ± 8 Number/mm^2, respectively. In addition, the “Decrease of EC cells number compared with the PI-IBS group” value in experiment [1] (low dose (5 mg/kg)) is listed as 18%; in experiment [1] (median dose (10 mg/kg)), 42%. Besides, the TPH/actin ratio in experiment [2] (PI-IBS rats, colon, 10 mg/kg i.g.) came out at 0.62 ± 0.11. For the same compound, the “Reduction of colonic TPH expression in PI-IBS rats” value in experiment [2] (median dose, 10 mg/kg, p<0.05) is on record as ~22.8%. Further, the “Secretory granules of EC cells compared to PI-IBS rats (electron micrographs)” value in experiment [3] is recorded as “became denser”.
